Reference: US11186564B2, “Dual NAV1.2/5HT2a inhibitors for treating CNS disorders” (Sunovion Pharmaceuticals Inc., priority 2016, dated 2021)
Structures can show the parent of a compound that is named as a salt. Where two headings read alike, the source gives them in different places.

Assays:
[1] = target: human sodium channel NaV1.2 (Homo sapiens, UniProt Q99250); assay: NaV1.2 inhibition, automated patch-clamp (Q-Patch HTX), slow inactivated state (state C); assay type: cell-based; settings: hNaV1.2 CHO cells, slow inactivated state; for IC50: read-out: NaV1.2 IC50; for inhibition at 1 µM: 1 μM compound, read-out: NaV1.2 (% inh), 1 μM; for inhibition at 10 µM: 10 μM compound, read-out: NaV1.2 (% inh), 10 μM
Chain of human sodium channel NaV1.2 (Q99250 whole entry): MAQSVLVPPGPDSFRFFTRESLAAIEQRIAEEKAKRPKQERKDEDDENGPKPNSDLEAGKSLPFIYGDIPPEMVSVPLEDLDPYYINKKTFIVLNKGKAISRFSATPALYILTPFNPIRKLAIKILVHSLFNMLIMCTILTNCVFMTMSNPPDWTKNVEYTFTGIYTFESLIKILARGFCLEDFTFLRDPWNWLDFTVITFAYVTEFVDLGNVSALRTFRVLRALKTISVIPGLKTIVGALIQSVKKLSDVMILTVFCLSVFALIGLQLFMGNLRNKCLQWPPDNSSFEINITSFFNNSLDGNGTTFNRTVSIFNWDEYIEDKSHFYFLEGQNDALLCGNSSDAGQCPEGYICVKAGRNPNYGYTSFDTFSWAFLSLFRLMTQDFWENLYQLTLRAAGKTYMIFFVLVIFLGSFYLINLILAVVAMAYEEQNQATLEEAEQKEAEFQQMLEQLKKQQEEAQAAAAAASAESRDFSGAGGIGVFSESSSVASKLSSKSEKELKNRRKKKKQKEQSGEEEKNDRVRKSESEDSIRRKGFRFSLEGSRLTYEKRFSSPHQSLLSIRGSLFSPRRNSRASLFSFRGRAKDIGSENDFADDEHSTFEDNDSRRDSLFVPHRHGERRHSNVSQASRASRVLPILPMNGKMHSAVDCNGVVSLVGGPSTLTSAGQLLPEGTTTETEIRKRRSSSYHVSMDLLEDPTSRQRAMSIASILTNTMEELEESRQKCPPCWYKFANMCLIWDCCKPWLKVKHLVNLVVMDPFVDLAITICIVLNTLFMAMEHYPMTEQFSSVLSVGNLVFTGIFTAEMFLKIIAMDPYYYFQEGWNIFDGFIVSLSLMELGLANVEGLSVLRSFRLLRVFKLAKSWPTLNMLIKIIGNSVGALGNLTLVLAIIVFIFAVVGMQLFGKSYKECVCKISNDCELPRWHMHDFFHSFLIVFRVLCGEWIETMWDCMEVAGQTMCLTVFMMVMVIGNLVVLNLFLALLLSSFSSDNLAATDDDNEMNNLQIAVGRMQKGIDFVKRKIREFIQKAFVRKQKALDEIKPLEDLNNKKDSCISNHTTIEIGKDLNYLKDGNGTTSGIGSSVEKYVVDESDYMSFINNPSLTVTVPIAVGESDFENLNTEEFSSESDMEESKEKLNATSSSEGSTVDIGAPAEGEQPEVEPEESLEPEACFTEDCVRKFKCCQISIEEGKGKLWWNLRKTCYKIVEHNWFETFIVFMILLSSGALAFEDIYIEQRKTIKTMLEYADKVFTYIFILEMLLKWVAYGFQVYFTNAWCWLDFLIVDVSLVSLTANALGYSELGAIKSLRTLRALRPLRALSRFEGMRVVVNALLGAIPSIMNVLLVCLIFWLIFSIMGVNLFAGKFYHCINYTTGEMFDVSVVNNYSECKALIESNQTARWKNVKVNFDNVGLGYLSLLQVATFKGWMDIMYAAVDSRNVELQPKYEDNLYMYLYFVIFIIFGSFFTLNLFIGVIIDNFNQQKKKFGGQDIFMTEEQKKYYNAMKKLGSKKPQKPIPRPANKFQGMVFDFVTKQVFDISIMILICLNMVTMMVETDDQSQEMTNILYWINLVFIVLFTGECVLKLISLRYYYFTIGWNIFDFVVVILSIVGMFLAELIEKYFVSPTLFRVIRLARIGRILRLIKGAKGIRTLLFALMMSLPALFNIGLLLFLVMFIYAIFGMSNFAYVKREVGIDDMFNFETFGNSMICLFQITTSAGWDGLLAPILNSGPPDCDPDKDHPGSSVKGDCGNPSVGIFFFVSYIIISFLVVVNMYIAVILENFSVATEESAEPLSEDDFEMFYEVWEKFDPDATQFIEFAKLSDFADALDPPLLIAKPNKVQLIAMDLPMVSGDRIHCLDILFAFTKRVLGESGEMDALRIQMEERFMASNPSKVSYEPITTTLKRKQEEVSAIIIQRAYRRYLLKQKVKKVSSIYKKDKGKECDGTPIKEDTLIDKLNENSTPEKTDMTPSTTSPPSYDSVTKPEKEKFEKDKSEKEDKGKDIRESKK
Procedure, shortened: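 CHO K-1 cells stably expressing human NaV1.2, whole-cell automated patch clamp, holding −100 mV; slow-inactivated state (state C) read at a 5 ms step to 0 mV after 10 s at −50 mV and 15 ms at −90 mV. Percent inhibition vs vehicle; IC50 by nonlinear least-squares fit.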

[2] = target: T1, recombinant human serotonin receptor 5-HT2A (Homo sapiens, UniProt P28223); assay: 5-HT2A antagonist Ca2+ assay in CHO-K1 cells (method A aequorin luminescence / method B FLIPR fluorescence); assay type: cell-based; settings: antagonist mode vs EC80 of reference agonist, method A or B
T1 construct: expressed in transfected cells; method B: loaded with Ca2+ dye
T1 sequence (P28223 whole entry): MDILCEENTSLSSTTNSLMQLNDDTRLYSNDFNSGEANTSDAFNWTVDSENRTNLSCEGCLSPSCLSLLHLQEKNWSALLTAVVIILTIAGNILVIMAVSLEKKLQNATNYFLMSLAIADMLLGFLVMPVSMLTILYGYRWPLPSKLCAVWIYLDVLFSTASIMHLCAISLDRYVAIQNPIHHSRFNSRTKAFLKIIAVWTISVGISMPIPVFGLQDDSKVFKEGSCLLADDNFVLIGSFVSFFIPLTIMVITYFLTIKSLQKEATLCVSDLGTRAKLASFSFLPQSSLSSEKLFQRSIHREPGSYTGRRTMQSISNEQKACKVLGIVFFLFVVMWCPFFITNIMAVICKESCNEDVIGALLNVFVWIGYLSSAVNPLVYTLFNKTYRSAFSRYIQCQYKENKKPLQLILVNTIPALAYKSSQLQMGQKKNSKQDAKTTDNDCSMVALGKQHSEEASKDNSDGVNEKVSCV
Procedure, shortened: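 Method A: CHO-K1 cells co-expressing human 5-HT2A and mitochondrial apoaequorin were given reference agonist at EC80 15 min after compound, with luminescence read. Method B: dye-loaded 5-HT2A CHO-K1 cells were pretreated with compound, then given serotonin at EC80, with FLIPR fluorescence read. IC50s came from nonlinear fits of percent inhibition.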

| inhibition at 1 µM [1] | inhibition at 10 µM [1] | Structure (SMILES) | IC50 [1] | IC50 ([2]; read-out: 5HT2A IC50) | IC50 ([2]; 5HT2A IC50, μM) |
| --- | --- | --- | --- | --- | --- |
| – | – | O=C1c2ccccc2CCN1CCN1CCC(Oc2cccc(Cl)c2)CC1 [Example 194, 2-(2-(4-(3-chlorophenoxy)piperidin-1-yl)ethyl)-3,4-dihydroisoquinolin-1(2H)-one] | 230 nM | 0.11 µM | – |
| – | – | c1ccc2c(c1)CC(CN1CCC3(CC1)Cc1ccccc1O3)C2 [Example 396, 1′-((2,3-dihydro-1H-inden-2-yl)methyl)-3H-spiro[benzofuran-2,4′-piperidine]] | 170 nM | 0.09 µM | – |
| 46% | – | COc1ccc2c(c1)C(CN1CC[C@H](Oc3ccccc3OC)C[C@@H]1C)CC2 (stereo partly drawn) [Example 104, (2S,4S)-1-((6-methoxy-2,3-dihydro-1H-inden-1-yl)methyl)-4-(2-methoxyphenoxy)-2-methylpiperidine] | – | 0.26 µM | – |
| – | – | O=C1c2ccccc2CCN1CCN1CCC2(CCc3ccccc3O2)CC1 [Example 422, 2-(2-(spiro[chromane-2,4′-piperidin]-1′-yl)ethyl)-3,4-dihydroisoquinolin-1(2H)-one] | 400 nM | 0.07 µM | – |
| 16% | – | O=C1c2ccccc2CCN1CCN1CCN(c2ccccc2)CC1 [Example 63, 2-(2-(4-phenylpiperazin-1-yl)ethyl)-3,4-dihydroisoquinolin-1(2H)-one] | – | 0.45 µM | – |
| 3% | – | OC1(CN2CC[C@H](Oc3ccc(F)cc3)C2)COCc2ccccc21 (stereo partly drawn) [Example 10, 4-(((S)-3-(4-fluorophenoxy)pyrrolidin-1-yl)methyl)isochroman-4-ol] | – | 0.31 µM | – |
| – | 47% | N#Cc1cccc(OC2CCN(CCN3CCc4ccccc4C3=O)CC2)c1 [Example 197, 3-((1-(2-(1-oxo-3,4-dihydroisoquinolin-2(1H)-yl)ethyl)piperidin-4-yl)oxy)benzonitrile] | – | 1.25 µM | – |
| – | – | Fc1ccc(OC2CCN(CCC3CCc4cnccc43)CC2)cc1 (stereo not drawn) [Example 173, 5-(2-(4-(4-fluorophenoxy)piperidin-1-yl)ethyl)-6,7-dihydro-5H-cyclopenta[c]pyridine] | 3170 nM | 0.01 µM | – |
| 2% | – | Fc1ccc(OC2CCN(CCC3CCCCO3)CC2)cc1 (stereo not drawn) [Example 168, 4-(4-fluorophenoxy)-1-(2-(tetrahydro-2H-pyran-2-yl)ethyl)piperidine] | – | 0.13 µM | – |
| 34% | – | O=C(CN1CCC(Oc2ccccc2)CC1)c1ccccc1 [Example 216, 2-(4-phenoxypiperidin-1-yl)-1-phenylethan-1-one] | – | 0.15 µM | – |
| – | 92% | OC(COc1ccccc1)CN1CCC2(CC1)Cc1ccccc1O2 (stereo not drawn) [Example 399, 1-phenoxy-3-(3H-spiro[benzofuran-2,4′-piperidin]-1′-yl)propan-2-ol] | – | 1.83 µM | – |
| – | – | COc1ccccc1CN1CCC2(CCN(CC3CCc4ccccc43)C2)C1 (stereo not drawn) [Example 347, 2-((2,3-dihydro-1H-inden-1-yl)methyl)-7-(2-methoxybenzyl)-2,7-diazaspiro[4.4]nonane] | 3190 nM | 0.03 µM | – |
| – | – | COc1cccc(OC2CCN(CCN3CCc4ccccc4C3=O)CC2)c1 [Example 195, 2-(2-(4-(3-methoxyphenoxy)piperidin-1-yl)ethyl)-3,4-dihydroisoquinolin-1(2H)-one] | 1500 nM | 0.26 µM | – |
| – | – | Cc1cccc(N2CCN(CC(O)COC3COc4ccccc43)CC2)c1C (stereo not drawn) [Example 80, 1-((2,3-dihydrobenzofuran-3-yl)oxy)-3-(4-(2,3-dimethylphenyl)piperazin-1-yl)propan-2-ol] | 170 nM | 0.06 µM | – |
| – | – | COc1ccccc1O[C@@H]1CCN(CC2Cc3ccccc3C2)[C@H](C)C1 [Example 140, (2R,4R)-1-((2,3-dihydro-1H-inden-2-yl)methyl)-4-(2-methoxyphenoxy)-2-methylpiperidine] | 510 nM | 0.63 µM | – |
| -3% | – | c1cnc(OC2CCN(CC3CCc4ccccc43)CC2)nc1 (stereo not drawn) [Example 125, 2-((1-((2,3-dihydro-1H-inden-1-yl)methyl)piperidin-4-yl)oxy) pyrimidine] | – | 0.08 µM | – |
| – | – | O=C1CC2(CCN(CC3CCc4ccccc43)C2)Oc2ccccc21 (stereo not drawn) [Example 388, 1′-((2,3-dihydro-1H-inden-1-yl)methyl)spiro[chromane-2,3′-pyrrolidin]-4-one] | 1750 nM | 0.22 µM | – |
| – | – | COc1cccc(OCCN2CCN(c3nsc4ccccc34)CC2)c1 [Example 68, 3-(4-(2-(3-methoxyphenoxy)ethyl)piperazin-1-yl)benzo[d]isothiazole] | 730 nM | 0.004 µM | – |
| – | – | OC(COC1CCCCC1)CN1CCC2(CCc3ccccc3O2)CC1 (stereo not drawn) [Example 436, 1-(cyclohexyloxy)-3-(spiro[chromane-2,4′-piperidin]-1′-yl)propan-2-ol] | 260 nM | 0.02 µM | – |
| – | – | c1ccc(N2CCN(CC3CCc4ccccc43)CC2)cc1 (stereo not drawn) [Example 55, 1-((2,3-dihydro-1H-inden-1-yl)methyl)-4-phenylpiperazine] | 4120 nM | 0.01 µM | – |
| – | – | c1ccc(O[C@H]2COC3(CCN(C[C@@H]4CCc5ccccc54)CC3)C2)cc1 (single isomer, unassigned) [Compound 382] | 1210 nM | 0.06 µM | – |
| – | – | COc1cccc(CCN2CCC3(CCc4ccccc4O3)CC2)c1 [Example 429, 1′-(3-methoxyphenethyl) spiro[chromane-2,4′-piperidine]] | 1340 nM | 0.37 µM | – |
| 0% | – | O=C1c2cc(Cl)ccc2CN1CCN1CCC(Oc2ccc(F)cc2)CC1 [Example 189, 6-chloro-2-(2-(4-(4-fluorophenoxy)piperidin-1-yl)ethyl)isoindolin-1-one] | – | 0.18 µM | – |
| – | – | O[C@H](COC1CCCCC1)CN1[C@@H]2CC[C@H]1CN(c1ccccc1)C2 [Example 287, (S)-1-(cyclohexyloxy)-3-((1R,5S)-3-phenyl-3,8-diazabicyclo[3.2.1]octan-8-yl)propan-2-ol] | 580 nM | – | 0.03 µM |
| – | – | Fc1ccc(OC2CCN(CCC3CCOc4ccccc43)CC2)cc1 (stereo not drawn) [Example 183, 1-(2-(chroman-4-yl)ethyl)-4-(4-fluorophenoxy)piperidine] | 1590 nM | 0.04 µM | – |
| – | – | c1ccc2c(c1)COC1(CCN(CC3CCc4ccccc43)CC1)C2 (stereo not drawn) [Example 443, l′-((2,3-dihydro-1H-inden-1-yl)methyl)spiro[isochromane-3,4′-piperidine]] | 3370 nM | 0.22 µM | – |
| -5% | – | Fc1ccc(O[C@@H]2CCN(CC3CCc4ncccc43)C2)cc1 (stereo partly drawn) [Example 3, 5-(((R)-3-(4-fluorophenoxy)pyrrolidin-1-yl)methyl)-6,7-dihydro-5H-cyclopenta[b]pyridine] | – | 1.88 µM | – |
| – | – | c1ccc2c(c1)CCC1(CCN(CCO[C@H]3CCc4ccccc43)CC1)O2 [Example 432] | 360 nM | 0.15 µM | – |
| 31% | – | COc1ccc2c(c1)C(CN1CC3CC(C1)N(c1ccccc1)C3)CC2 (stereo not drawn) [Example 328, 3-((6-methoxy-2,3-dihydro-1H-inden-1-yl)methyl)-6-phenyl-3,6-diazabicyclo[3.2.1]octane] | – | 5.31 µM | – |
| – | – | Fc1ccc(OC2CCN(CC3Cc4cccnc4C3)CC2)cc1 (stereo not drawn) [Example 155, 6-((4-(4-fluorophenoxy)piperidin-1-yl)methyl)-6,7-dihydro-5H-cyclopenta[b]pyridine dihydrochloride] | 1000 nM | 0.04 µM | – |
